According to patent US4596804A, “Dibenz[b,e]oxepin compounds” (Kyowa Hakko Kogyo Co., Ltd., priority 1983, dated 1986):
Structures can show the parent of a compound that is named as a salt.

Assays:
[1] = test system: passive cutaneous anaphylaxis (PCA) reaction; experiment: 48-hour homologous PCA (passive cutaneous anaphylaxis) test in rats, antiallergic activity; assay type: in vivo, male Wistar strain rats; conditions: minimum dose with at least one positive among three rats; for minimal effective dose: Rattus norvegicus, po, read-out: Antiallergic Activity, MED (minimum effective dose); for Antiallergic Activity, MED (minimum effective dose): oral
Description: The 48-hour homologous PCA (passive cutaneous anaphylaxis) test was employed. As test animals, male Wistar strain rats weighing 180 to 220 g were used for preparation of antiserum and those weighing 120 to 140 g for PCA test.
(A) Preparation of rat antiserum to EWA
Rat antiserum to egg white albumin (EWA) was prepared by the method of Stotland Share [Canad. J. Physiol. Pharmacol. 52, 1114 (1974)] as follows. One mg of EWA was mixed with 20 mg of aluminum hydroxide gel and 0.5 ml of pertussis/diphtheria/tetanus mixed vaccine, and the mixture was subcutaneously injected to each rat through the sole in four portions. After 14 days, blood samples were taken from the carotid artery, and the serum was separated and stored at -80° C. The 48-hour homologous PCA titer of this antiserum was 1:32.
(B) 48-hour homologous PCA test in rats
Three rats for each group were employed for 48-hour homologous PCA test. Rats were passively sensitized by injecting intradermally at the two spots on the shaved back 0.05 ml portions of the antiserum which was diluted 8-fold with physiological saline. After 47 hours, test compounds or the solutions thereof (physiological saline solution or CMC solution) were orally administered to the rats, and after one hour, the animals were injected intraveneously to tail vein 0.5 ml/100 g body weight of saline containing 2 mg of EWA, together with 1% Evans blue. Thirty minutes after antigen challenge, the rats were sacrificed by exanguination, and the skin was cut out, followed by the evaluation of the intensity of PCA reaction by expressing the amounts of dye leaked. The amounts of dye leaked from the blue-stained section were measured by the metod of Katayama, et al [Microbiol. Immunol. 22, 89 (1978)] as follows. A portion of the blue-stained section cut out with scissors was placed in a test tube containing 1 ml of 1N KOH solution, and incubated at 37° C. for 24 hours. 9 ml of a mixture of 0.6N phosphoric acid and acetone (5:13) was added, and the mixture was shaken and subjected to centrifugation at 2500 rpm for 10 minutes. Then, the absorbance of the supernatant liquid at 620 mμ was measured, and the amount of eluted dye was determined by using a calibration curve previously prepared. The average of the measurements for the two positions was taken as the value for each individual, and the inhibition rate for each rat was calculated from the following formula: [formula]
PCA inhibiting activity was evaluated as positive when the inhibition rate was 50% or higher, and the minimum dose required to achieve positive result for at least one among the three rats in each group was taken as the minimum effective dose (MED).

male dd strain mice = experiment: Acute toxicity (minimum lethal dose); assay type: in vivo; conditions: mortality seven days after administration; for Acute Toxicity (MLD) ip: intraperitoneal
Description: The present compound was administered orally (p.o. 300 mg/kg) or intraperitoneally (i.p. 100 mg/kg) to several groups of male dd strain mice weighing 19 to 21 g (each group consisting of three mice), and MLD (minimum lethal dose) was determined by observing the mortality seven days after administration.

SMILES: CN(C)CCNC1c2ccccc2COc2ccc(C(N)=O)cc21 (stereo not drawn) [Compound 14, 11-(N,N--dimethylaminoethyl)amino-6,11-dihydrodibenz[b,e]oxepin-2-carboamide]
- minimal effective dose [1]: 1 mg/kg
- Acute Toxicity (MLD) ip (male dd strain mice): > 100 mg/kg
- Acute Toxicity (MLD) PO (male dd strain mice): 300 mg/kg

SMILES: CCOC(=O)OC(C)OC(=O)c1ccc2c(c1)C(N1CCN(C)CC1)c1ccccc1CO2 (stereo not drawn) [Compound 19, 11-(4-Methylpiperazino)-6,11-dihydrodibenz[b,e]oxepin-2-carboxylic acid (1-ethoxycarbonyloxy)ethyl ester]
- minimal effective dose [1]: 1 mg/kg
- Acute Toxicity (MLD) ip (male dd strain mice): > 100 mg/kg
- Acute Toxicity (MLD) PO (male dd strain mice): > 300 mg/kg

SMILES: CCOC(=O)c1ccc2c(c1)C(NC1CN3CCC1CC3)c1ccccc1CO2 (stereo not drawn) [Compound 17, 11-(3-Quinuclidinyl)amino-6,11-dihydrodibenz[b,e]oxepin-2-carboxylic acid ethyl ester]
- minimal effective dose [1]: 0.1 mg/kg
- Acute Toxicity (MLD) ip (male dd strain mice): > 100 mg/kg
- Acute Toxicity (MLD) PO (male dd strain mice): > 300 mg/kg

SMILES: CN(C)CCSC1c2ccccc2COc2ccc(C(=O)O)cc21 (stereo not drawn) [Compound 22, 11-(N,N--dimethylaminoethyl)thio-6,11-dihydrodibenz[b,e]oxepin-2-carboxylic acid hydrochloride.1/2H2 O]
- Antiallergic Activity, MED (minimum effective dose) [1]: 0.1 mg/kg
- Acute Toxicity (MLD) ip (male dd strain mice): > 100 mg/kg
- Acute Toxicity (MLD) PO (male dd strain mice): > 300 mg/kg

SMILES: CCOC(=O)OC(C)OC(=O)c1ccc2c(c1)C(SCCN(C)C)c1ccccc1CO2 (stereo not drawn) [Compound 20, 11-(N,N--dimethylaminoethyl)thio-6,11-dihydrodibenz[b,e]oxepin-2-carboxylic acid (1-ethoxycarbonyloxy)ethyl ester]
- minimal effective dose [1]: 0.1 mg/kg
- Acute Toxicity (MLD) ip (male dd strain mice): > 100 mg/kg
- Acute Toxicity (MLD) PO (male dd strain mice): > 300 mg/kg

SMILES: CCOC(=O)c1ccc2c(c1)C(OCCN(C)C)c1ccccc1CO2 (stereo not drawn) [Compound 11, 11-(N,N--dimethylaminoethyl)oxy-6,11-dihydrodibenz[b,e]oxepin-2-carboxylic acid ethyl ester]
- minimal effective dose [1]: 1 mg/kg
- Acute Toxicity (MLD) ip (male dd strain mice): > 100 mg/kg
- Acute Toxicity (MLD) PO (male dd strain mice): > 300 mg/kg

SMILES: CN(C)CCSC1c2ccccc2COc2ccc(C(=O)O)cc21 (stereo not drawn) [Compound 8, 11-(N,N--dimethylaminoethyl)thio-6,11-dihydrodibenz[b,e]oxepin-2-carboxylic acid acetate]
- Antiallergic Activity, MED (minimum effective dose) [1]: 10 mg/kg
- Acute Toxicity (MLD) ip (male dd strain mice): > 100 mg/kg
- Acute Toxicity (MLD) PO (male dd strain mice): > 300 mg/kg

SMILES: CN1CCN(C2c3ccccc3COc3ccc(C(=O)O)cc32)CC1 (stereo not drawn) [Compound 21, 11-(4-Methylpiperazino)-6,11-dihydrodibenz[b,e]oxepin-2-carboxylic acid dihydrochloride.1/4H2 O]
- Antiallergic Activity, MED (minimum effective dose) [1]: 1 mg/kg
- Acute Toxicity (MLD) ip (male dd strain mice): > 100 mg/kg
- Acute Toxicity (MLD) PO (male dd strain mice): > 300 mg/kg

SMILES: CCOC(=O)c1ccc2c(c1)C(SCCN(C)C)c1ccccc1CO2 (stereo not drawn) [Compound 7, 11-(N,N--dimethylaminoethyl)thio-6,11-dihydrodibenz[b,e]oxepin-2-carboxylic acid ethyl ester]
- minimal effective dose [1]: 10 mg/kg
- Acute Toxicity (MLD) ip (male dd strain mice): > 100 mg/kg
- Acute Toxicity (MLD) PO (male dd strain mice): > 300 mg/kg

SMILES: CN1CCN(C2c3ccccc3COc3ccc(-c4nnn[nH]4)cc32)CC1 (stereo not drawn) [Compound 6, 11-(4-Methylpiperazino)-2-(5-tetrazolyl)-6,11-dihydrodibenz[b,e]oxepin Na salt]
- minimal effective dose [1]: 10 mg/kg
- Acute Toxicity (MLD) ip (male dd strain mice): > 100 mg/kg
- Acute Toxicity (MLD) PO (male dd strain mice): > 300 mg/kg

SMILES: CN1CCN(C2c3ccccc3COc3ccc(C(N)=O)cc32)CC1 (stereo not drawn) [Compound 4, 11-(4-Methylpiperazino)-6,11-dihydrodibenz[b,e]oxepin-2-carboamide]
- minimal effective dose [1]: 10 mg/kg
- Acute Toxicity (MLD) ip (male dd strain mice): > 100 mg/kg
- Acute Toxicity (MLD) PO (male dd strain mice): > 300 mg/kg

SMILES: CN(C)CCSC1c2ccccc2COc2ccc(C#N)cc21 (stereo not drawn) [Compound 10, 11-(N,N--dimethylaminoethyl)thio-6,11-dihydrodibenz[b,e]oxepin-2-carbonitrile]
- minimal effective dose [1]: 1 mg/kg
- Acute Toxicity (MLD) ip (male dd strain mice): > 100 mg/kg
- Acute Toxicity (MLD) PO (male dd strain mice): > 300 mg/kg

SMILES: CN1CCN(C2c3ccccc3COc3ccc(C(=O)O)cc32)CC1 (stereo not drawn) [Compound 3, 11-(4-Methylpiperazino)-6,11-dihydrodibenz[b,e]oxepin-2-carboxylic acid diacetate.2H2 O]
- minimal effective dose [1]: 1 mg/kg
- Acute Toxicity (MLD) ip (male dd strain mice): > 100 mg/kg
- Acute Toxicity (MLD) PO (male dd strain mice): > 300 mg/kg
